Columns and labels:
[1] = biological target: T1, human UPF1 (hUPF1) helicase (Homo sapiens, UniProt Q92900); test: helicase assay after pre-incubation of SMI with hUPF1; type: biochemical; conditions: for IC50: 2 h pre-incubation at 22°C with 100 nM hUPF1, then 1:10 dilution into helicase assay, read-out: IC50 for dsDNA unwinding by hUPF1 following pre-incubation
T1 construct: Full-length human UPF1 helicase was expressed and purified as described previously; made in house
T1 sequence (Q92900 1-1129): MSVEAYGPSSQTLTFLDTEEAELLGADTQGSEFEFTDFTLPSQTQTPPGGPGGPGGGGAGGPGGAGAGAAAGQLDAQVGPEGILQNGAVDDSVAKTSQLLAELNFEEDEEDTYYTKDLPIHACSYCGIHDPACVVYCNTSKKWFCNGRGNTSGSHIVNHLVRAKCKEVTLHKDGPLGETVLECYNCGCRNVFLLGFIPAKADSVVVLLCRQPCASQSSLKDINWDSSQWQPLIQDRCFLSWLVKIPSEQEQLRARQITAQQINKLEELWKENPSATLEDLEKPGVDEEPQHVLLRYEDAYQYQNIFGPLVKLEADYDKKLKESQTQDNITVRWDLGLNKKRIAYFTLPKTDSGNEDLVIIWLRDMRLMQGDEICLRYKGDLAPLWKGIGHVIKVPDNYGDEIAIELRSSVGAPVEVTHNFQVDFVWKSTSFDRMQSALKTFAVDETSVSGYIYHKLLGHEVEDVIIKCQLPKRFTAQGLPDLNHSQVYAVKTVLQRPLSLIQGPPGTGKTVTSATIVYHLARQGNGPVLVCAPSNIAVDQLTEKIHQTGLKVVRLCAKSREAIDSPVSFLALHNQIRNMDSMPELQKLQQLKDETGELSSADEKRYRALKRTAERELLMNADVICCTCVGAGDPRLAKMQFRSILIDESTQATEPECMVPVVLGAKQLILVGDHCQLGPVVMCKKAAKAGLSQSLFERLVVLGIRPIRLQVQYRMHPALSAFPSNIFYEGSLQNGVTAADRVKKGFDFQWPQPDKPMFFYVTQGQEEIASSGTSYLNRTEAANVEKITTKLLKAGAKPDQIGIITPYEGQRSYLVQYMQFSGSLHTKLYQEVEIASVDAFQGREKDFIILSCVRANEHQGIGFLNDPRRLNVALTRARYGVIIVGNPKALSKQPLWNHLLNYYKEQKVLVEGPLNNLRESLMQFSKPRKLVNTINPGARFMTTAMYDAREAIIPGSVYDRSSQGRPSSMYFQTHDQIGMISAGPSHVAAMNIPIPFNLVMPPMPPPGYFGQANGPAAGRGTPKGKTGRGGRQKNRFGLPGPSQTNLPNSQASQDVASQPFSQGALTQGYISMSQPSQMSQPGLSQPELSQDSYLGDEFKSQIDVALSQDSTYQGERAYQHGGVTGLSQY
Method: Full-length human UPF1 helicase was expressed and purified as described previously ([36]).
In parallel, IC50 values for inhibition of human UPF1 (hUPF1) helicase activity by the SMIs were also determined under the same conditions. UPF1-like SF1B helicases are the most closely related family of helicases to PIF1, with significant structural and mechanistic similarity ([52]).
Figure 6. SMI IC50 for dsDNA unwinding determined following pre-incubation. SMIs (0.0078–2 mM SMI) were incubated for 2 h at 22°C (100 nM FLhPIF1 or hUPF1) before dilution (1:10) in the standard helicase assay (0.1 nM DNA substrate). For 1D and 6, structures, electrophoresis of FLhPIF1 reaction product and graphs for IC50 value determination are shown. The graphed data include the activity of SMIs towards hUPF1 and IC50 values obtained are given. See Supplementary Figure S14 for the complete data set. TEXT PRINTED IN THE PICTURE: 1D: IC50 (μM): PIF1: 978 ± 221; IC50 (μM): UPF1: N.D. | 6: IC50 (μM): PIF1: 79.4 ± 16; IC50 (μM): UPF1: 1750 ± 426
Supplementary Figure 14. IC50 DNA unwinding determined following 2 hours pre-incubation. […] The assay procedure and reaction conditions for each helicase were identical (see methods, main manuscript). The figure complements main manuscript Figure 6. […] The reason for this is unclear.

[2] = biological target: T2, FLhPIF1 (full length human PIF1) (Homo sapiens, UniProt Q9H611); test: radiometric strand displacement helicase assay, no pre-incubation; type: biochemical; conditions: for inhibition at 1000 µM: 1 mM single point, gel-based DNA unwinding assay, four repeats (S4 n=3); for IC50: 0.0078–2 mM compound, 10 nM FLhPIF1, 0.1 nM DNA substrate, n = 3, read-out: IC50 for inhibition of FLhPIF1 helicase activity; for fold increase in inhibition at 1 mM relative to compound 1: 1 mM single point helicase screen
T2 construct: Full length human PIF1 (FLhPIF1) was expressed and purified as a His-SUMO fusion; His-SUMO (cleaved yes); made in house; 'following similar protocols' to hPIF1HD (ArcticExpress BL21(DE3) E. coli)
T2 sequence (Q9H611 1-641): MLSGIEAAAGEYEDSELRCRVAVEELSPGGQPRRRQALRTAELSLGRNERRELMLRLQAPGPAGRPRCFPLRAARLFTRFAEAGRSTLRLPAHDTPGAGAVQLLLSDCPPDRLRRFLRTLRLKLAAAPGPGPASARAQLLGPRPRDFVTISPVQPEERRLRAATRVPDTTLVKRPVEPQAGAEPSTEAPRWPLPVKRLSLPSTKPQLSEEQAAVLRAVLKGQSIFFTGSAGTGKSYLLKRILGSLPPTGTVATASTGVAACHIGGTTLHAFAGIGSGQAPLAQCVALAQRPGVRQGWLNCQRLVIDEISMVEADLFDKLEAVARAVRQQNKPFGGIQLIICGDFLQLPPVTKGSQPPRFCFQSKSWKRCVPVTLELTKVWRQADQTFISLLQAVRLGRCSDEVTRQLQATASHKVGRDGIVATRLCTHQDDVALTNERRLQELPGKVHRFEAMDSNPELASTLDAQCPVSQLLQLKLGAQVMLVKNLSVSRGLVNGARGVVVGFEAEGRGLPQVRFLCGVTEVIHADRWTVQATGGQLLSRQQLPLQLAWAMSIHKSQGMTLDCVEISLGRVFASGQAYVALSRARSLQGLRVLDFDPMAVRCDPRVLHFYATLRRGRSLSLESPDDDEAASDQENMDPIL
Method: Helicase activity was assayed using a radiometric strand displacement assay employing a partially single- and double-stranded substrate generated by annealing two oligonucleotides: 5′-(T)55-[…] and 5′-[…], as described previously ([19],[28]). […] SMIs (100 mM stocks in DMSO) were assayed at up to 2 mM without pre-incubation with FLhPIF1, unless otherwise stated. […] Dried gels were exposed to phosphorimaging plates (Fujifilm) for imaging and quantification (Fuji FLA3000, image gauge V3.3 software). IC50 values were analysed by non-linear regression (variable slope) using GraphPad Prism.

| SMILES | IC50 [1] | inhibition at 1000 µM [2] | IC50 ([2]; no pre-incubation) | fold increase in inhibition at 1 mM relative to compound 1 [2] | inhibition of FLhPIF1 helicase activity in 1 mM single-point screen ([2]; 1 mM) | fold difference in sensitivity, hUPF1 vs FLhPIF1 IC50 ([1]; 2 h pre-incubation) | fold improvement of helicase IC50 compared to progenitor 1F ([2]; no pre-incubation) |
| --- | --- | --- | --- | --- | --- | --- | --- |
| N#Cc1ccc(-c2csc(N)n2)cc1 [Compound 5] | 289 ± 127 µM | 84 ± 4.1% | 105 ± 6 µM | – | – | – | – |
| CC(=O)c1ccc(-c2csc(N)n2)cc1 [Compound 2] | 445 ± 132 µM | 79.1 ± 5.2% | 165 ± 75 µM | – | – | – | – |
| CC(=O)Nc1ccc(-c2csc(N)n2)cc1C1=CCNCC1 [Compound 11] | 576 ± 146 µM | 84.8 ± 3.4% | 188 ± 8 µM | up to 6.5 fold | – | – | – |
| CC(=O)Nc1ccc(-c2csc(N)n2)cc1-c1ccc(C)cc1 [Compound 10] | – | 80.9 ± 5.5% | 174 ± 7 µM | up to 6.5 fold | strongly inhibited the protein | – | – |
| Nc1nc(-c2ccc(C(=O)c3ccccc3)cc2)cs1 [Compound 6] | 1750 ± 426 µM | 82.3 ± 6.6% | 36 ± 7 µM | – | – | ~22 fold | 30 fold |

From article PMC11551755, “Structure-based discovery of first inhibitors targeting the helicase activity of human PIF1” (Nucleic Acids Research, 2024)
